Source: patent publication US20250171474A1, “CRYSTAL FORM OF […]” (Zhejiang Yangli Pharmaceutical Technology Co., Ltd., priority 2022, published 2025)
pIC50: −log10 of the molar value.

Tests used:
[1] = test system: HepG2-luc orthotopic xenograft tumor; assay: In vivo pharmacodynamics on orthotopic xenograft tumor model of human liver cancer HepG2; parameters: species or system Balb/C nude mice; conditions: for Bioluminescence (Day 1) / Bioluminescence (Day 21): mean, n=6 (Table 8); for Bioluminescence (Day 21) / RBL (Day 21), relative tumor signal growth value / T/C (%) (Day 21) / TGI (%) (Day 21) / T/Cweight (%) / Tumor weight (Day 21): Day 21; for T/Cweight (%): TWtreatment/TWvehicle; for Tumor weight (Day 21): mean ± SEM, n=6
Procedure: In this experiment, orthotopic xenograft tumor model of HepG2 in a nude mouse was used to evaluate the anti-tumor effect of the compound.
Female Balb/C nude mice, 6 to 8 weeks old, weighing 18 to 22 g, fetal bovine serum […], EMEM medium (Cat. No. 30-2003), phosphate buffer, Antibiotic-Antimycotic (Cat. No. 15240-062), Matrigel, and trypsin.
1. Preparation of cell culture: HepG2-luc cells were cultured in monolayer in vitro. The culture conditions were that 10% heat-inactivated fetal bovine serum was added to EMEM medium and the cells were cultured in an incubator containing 5% CO2 at 37° C. Digestion with trypsin-EDTA was performed twice a week for passaging. When the cell saturation was 80% to 90%, the cells were digested with trypsin-EDTA, counted, and resuspended in PBS and Matrigel (PBS: Matrigel=1:1), and the density was 166.67×10^6 cells/mL.
2. Tumor cell inoculation and grouping: Animals were anesthetized by intramuscular injection of 60 mg/kg Zoletil 50 and 1.5 mg/kg xylazine. When the animals were under deep anesthesia, the animals were properly fixed, and the abdomen skin was cleaned with 75% alcohol cotton balls. An incision of about 10 mm was cut with surgery, and 0.03 mL (PBS: Matrigel=1:1) of HepG2-luc cells was orthotopically inoculated on the left lobe of the liver of each mouse, and then the incision on the muscle layer was sutured with absorbable catgut, and the incision on the skin was sutured with a stapler. After surgery, the animals were kept warm on a warming blanket until they woke up. To relieve the pain of the animals, 2 mg/kg of meloxicam (administered subcutaneously once a day) would be administered for 3 consecutive days after surgery. 15 animals were randomly selected to detect the growth of the signal. When the signal began to rise, animals were randomly divided into groups according to the value of the bioluminescence signal, and the administration of the drug was started.
(§1) The experimental indicator is whether the tumor growth can be delayed or whether the tumor can be cured. After tumor inoculation, the bioluminescence signal and animal weight were detected once a week, which continued until the end of the observation period. The bioluminescence signal value can be used to calculate T/C (wherein T is the administration group, and C is the average intensity value of bioluminescence of the blank control group at the set time). Calculation formula of tumor growth inhibition rate (TGI): TGI (%)=[1−(Ti−T0)/(Vi−V0)]×100, wherein Ti is the average intensity of bioluminescence of the treatment group at the set time; T0 is the average intensity of bioluminescence at the starting point of administration. Vi is the average intensity of bioluminescence of the blank control group at the set time; V0 is the average intensity of bioluminescence at the starting point of administration.
b. Tumor growth inhibition was calculated by T/Cweight=TWtreatment/TWvehicle.
c. The p values were obtained by analyzing the tumor weight using one-way ANOVA between the vehicle group and the treatment groups.

[2] = Animal weight change in the HepG2 orthotopic xenograft model; type: in vivo, Balb/C nude mice; conditions: 1 and 3 mg/kg IV
Text: as §1

Hep3B cells = assay: Anti-proliferative activity on Hep3B cell line (CellTiter-Glo); type: cell-based
Procedure: (§2) EMEM medium, penicillin/streptomycin antibiotics were purchased from Wisent, and fetal bovine serum was purchased from Biosera. CellTiter-Glo (chemiluminescent cell viability assay reagent) reagent was purchased from Promega. The Hep3B cell line was purchased from the Cell Bank of the Chinese Academy of Sciences. Nivo multimode microplate reader (PerkinElmer).
Hep3B cells (liver cancer) were seeded in a white 96-well plate with 80 μL of cell suspension per well containing 3000 Hep3B cells. The cell plate was incubated overnight in a carbon dioxide incubator. The compound to be tested was 5-fold diluted to the ninth concentration with a multi-channel pipette, that is, the compound to be tested was diluted from 2 mM to 5.12 nM, and an experiment for the sample assayed in duplicate was set up. 78 μL of culture medium was added to the middle plate. According to the corresponding position, 2 µL per well of the gradient-diluted compound was transferred to the middle plate, then 20 μL per well was transferred to the cell plate after mixing well. […] Another cell plate was prepared, and the signal value as the maximum value (Max value in the following equation) was read on the day of drug addition to participate in data analysis. […] A multimode microplate reader was used for reading. […] A multimode microplate reader was used for reading. […]

HepG2 cells = assay: Anti-proliferative activity on HepG2 cell line (CellTiter-Glo); type: cell-based, human
Procedure: as §2, with “DMEM” for “EMEM”, “HepG2” for “Hep3B”
HepG2 cells (liver cancer) were seeded in a white 384-well plate with […] of cell suspension per well containing 1000 HepG2 cells. The cell plate was incubated overnight in a carbon dioxide incubator. The compound to be tested was 3-fold diluted to the ninth concentration with a multi-channel pipette, that is, the compound to be tested was diluted from 200 µM to 30 nM, and an experiment for the sample assayed in duplicate was set up. […] of culture medium was added to the middle plate. According to the corresponding position, […] per well of the gradient-diluted compound was transferred to the middle plate, then […] per well was transferred to the cell plate after mixing well. […] Another cell plate was prepared, and the signal value as the maximum value (Max value in the following equation) was read on the day of drug addition to participate in data analysis. […] A multimode microplate reader was used for reading. […] A multimode microplate reader was used for reading. […]

[3] = Group 2, 1 mg/kg IV Day 0, 7, 14
[4] = Group 3, 3 mg/kg IV Day 0, 7, 14

O=[N+]([O-])c1cc2c(cc1Oc1cccnc1F)[C@H](OP(=O)(N1CC1)N1CC1)COC2 [Compound of formula (I)]
inhibitory effect on tumor growth (in words) ([1]; 1 mg/kg, after 21 days of administration): significant inhibitory effect on tumor growth | Bioluminescence (Day 1) [1, 3]: 3.51E+09 photons/second | Bioluminescence (Day 21) [1, 3]: 4.35E+09 photons/second | Bioluminescence signal value of tumor tissue ([1]; Group 2, 1 mg/kg IV, 0 days after administration (Table 10)): 1.47E+09 photons/second | Bioluminescence signal value of tumor tissue ([1]; Group 2, 1 mg/kg IV, 7 days after administration (Table 10)): 4.34E+09 photons/second | Bioluminescence signal value of tumor tissue ([1]; Group 2, 1 mg/kg IV, 14 days after administration (Table 10)): 4.76E+09 photons/second | Bioluminescence signal value of tumor tissue ([1]; Group 2, 1 mg/kg IV, 21 days after administration (Table 10)): 4.52E+09 photons/second | RBL (Day 21), relative tumor signal growth value ([1]; Group 2, 1 mg/kg IV): 0.98 | T/C (%) (Day 21) ([1]; Group 2, 1 mg/kg IV): 10.04% | TGI (%) (Day 21) ([1]; Group 2, 1 mg/kg IV): 96.97% | T/Cweight (%) ([1]; Group 2, 1 mg/kg IV): 15.80% | Tumor weight (Day 21) ([1]; Group 2, 1 mg/kg IV): 0.090 ± 0.036 g | Bioluminescence (Day 1) [1, 4]: 3.51E+09 photons/second | Bioluminescence (Day 21) [1, 4]: 1.81E+09 photons/second | Bioluminescence signal value of tumor tissue ([1]; Group 3, 3 mg/kg IV, 0 days after administration (Table 10)): 1.47E+09 photons/second | Bioluminescence signal value of tumor tissue ([1]; Group 3, 3 mg/kg IV, 7 days after administration (Table 10)): 2.77E+09 photons/second | Bioluminescence signal value of tumor tissue ([1]; Group 3, 3 mg/kg IV, 14 days after administration (Table 10)): 2.59E+09 photons/second | Bioluminescence signal value of tumor tissue ([1]; Group 3, 3 mg/kg IV, 21 days after administration (Table 10)): 2.16E+09 photons/second | RBL (Day 21), relative tumor signal growth value ([1]; Group 3, 3 mg/kg IV): 0.41 | T/C (%) (Day 21) ([1]; Group 3, 3 mg/kg IV): 4.22% | TGI (%) (Day 21) ([1]; Group 3, 3 mg/kg IV): 106.21% | T/Cweight (%) ([1]; Group 3, 3 mg/kg IV): 10.23% | Tumor weight (Day 21) ([1]; Group 3, 3 mg/kg IV): 0.058 ± 0.013 g | inhibitory effect on tumor growth (conclusion, in words) ([1]; HepG2 orthotopic model, 1 and 3 mg/kg IV): significant inhibitory effect on tumor growth | anti-tumor effect (in words) ([1]; dose increased to 3 mg/kg): significantly enhanced | animal weight in the administration group (in words) [2]: does not decrease significantly | anti-proliferative activity on Hep3B (in words) (Hep3B cells; Hep3B with low expression of AKR1C3): no anti-proliferative activity | pIC50 (Hep3B cells; Homo sapiens, 72 h, Hep3B (low expression of AKR1C3), 3 days incubation): < 5.00 | anti-proliferative activity on HepG2 (in words) (HepG2 cells; HepG2 with high expression of AKR1C3): excellent anti-proliferative activity | pIC50 (HepG2 cells; Homo sapiens, 120 h, HepG2 (high expression of AKR1C3), 5 days incubation): 8.13
